The values that follow are results of earlier work, collected in patent publication US20170058346A1, “Methods Employing Non-Coding RNA Expression Assays” (SISTEMIC SCOTLAND LIMITED, priority 2009, published 2017).

The data set has as its system HDAC. Particulars: from a literature review.

Turning to `C[S+](C)[O-]` [DMSO, dimethyl sulphoxide], the HDAC inhibitor activity entry was “shown to be an HDAC inhibitor”.
